From PubChem BioAssay AID624167 (Sanford-Burnham Center for Chemical Genomics, 2012) come the findings set out here.

Assay in all cases: inhibition of PEG-3 promoter-driven reporter – cell-based, HeLa, luciferase, CREF/GAPDH counter-screen panel, dose response (AID 624167)
The target of assay [1] is PEG-3 (UniProt Q6IN02). The note with it: HeLa PEG-Prom luciferase reporter, overnight, CREF/GAPDH counter-screens, mean of runs. (In general: In a reporter assay the amount or activity of a reporter protein is the signal.)
The test system of assay [2] is PEG-3. The settings on record: HeLa PEG-Prom luciferase reporter, overnight, CREF/GAPDH counter-screens.
The next assay relates to Rat fibroblasts (CREF). The note with it: CREF/GAPDH counter-screens. On the technique in general: Counterscreens check selectivity or assay interference.
[3] abbreviates: run 1, dose range 1, individual replicate IC50 per panel.
Where [4] appears, read: run 2, dose range 1, individual replicate IC50 per panel.

PEG-3 (UniProt Q6IN02), sequence (Q6IN02 whole entry, looked up): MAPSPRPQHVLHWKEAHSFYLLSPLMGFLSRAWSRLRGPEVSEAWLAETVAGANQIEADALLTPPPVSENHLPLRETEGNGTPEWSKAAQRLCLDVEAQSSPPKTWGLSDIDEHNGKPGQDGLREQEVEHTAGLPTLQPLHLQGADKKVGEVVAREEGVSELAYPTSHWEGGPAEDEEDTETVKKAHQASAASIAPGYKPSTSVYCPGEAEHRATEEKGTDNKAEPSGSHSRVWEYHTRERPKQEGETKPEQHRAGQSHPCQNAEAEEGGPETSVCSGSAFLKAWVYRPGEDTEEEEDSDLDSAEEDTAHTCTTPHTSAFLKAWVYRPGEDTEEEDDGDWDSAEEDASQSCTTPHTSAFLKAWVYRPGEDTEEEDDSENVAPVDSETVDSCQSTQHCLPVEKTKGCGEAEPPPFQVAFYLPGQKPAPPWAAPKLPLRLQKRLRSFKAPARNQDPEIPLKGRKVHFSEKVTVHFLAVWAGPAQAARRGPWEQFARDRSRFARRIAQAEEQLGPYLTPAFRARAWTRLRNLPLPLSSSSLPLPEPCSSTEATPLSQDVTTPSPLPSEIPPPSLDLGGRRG

Usually IC50 stands for the midpoint of a concentration-inhibition curve. For the compound `O=C(Nc1ccc(N2CCOCC2)cc1)c1cnsn1`, the 50% inhibitory concentration (IC50) on PEG-3 [1] was 2130 nM; in the assay with PEG-3 [2] (setting [3]), 2800 nM; with PEG-3 [2] (setting [4]) it was 1470 nM; in the assay on Rat fibroblasts (CREF) (mean of runs), 2590 nM; in the assay on Rat fibroblasts (CREF) (setting [3]) it was 2510 nM; in the assay on Rat fibroblasts (CREF) (setting [4]), 2680 nM.
Take `O=C(/C=C/Nc1ccccc1Br)c1ccccn1`: the 50% inhibitory concentration (IC50) on PEG-3 [1] was 1100 nM; in the assay with PEG-3 [2] (setting [3]), 895 nM; in the assay on PEG-3 [2] (setting [4]) it was 1310 nM; with Rat fibroblasts (CREF) (mean of runs), 506 nM; with Rat fibroblasts (CREF) (setting [3]), 414 nM; in the assay with Rat fibroblasts (CREF) (setting [4]) it was 599 nM.
Consider `COc1cccc(-c2sc3ccccc3c2-c2ccc(OCCN(C)C)cc2)c1`, for which the IC50 on PEG-3 [1] was 8800 nM; in the assay on PEG-3 [2] (setting [3]) it was 10000 nM; in the assay on PEG-3 [2] (setting [4]) it was 7600 nM; in the assay on Rat fibroblasts (CREF) (mean of runs), 14400 nM; in the assay with Rat fibroblasts (CREF) (setting [3]) it was 14600 nM; in the assay with Rat fibroblasts (CREF) (setting [4]), 14200 nM.
Turning to `Cc1ccc(-c2cc3c(N=O)c4ccccc4c-3n[nH]2)cc1`, the half-maximal inhibitory concentration (IC50) on PEG-3 [1] was 1030 nM; in the assay on PEG-3 [2] (setting [3]), 1200 nM; in the assay on PEG-3 [2] (setting [4]), 860 nM; in the assay on Rat fibroblasts (CREF) (mean of runs), 18800 nM; with Rat fibroblasts (CREF) (setting [3]), 2730 nM; in the assay on Rat fibroblasts (CREF) (setting [4]), 34900 nM.
Take `CCCCCN1C=CC(=C2C(=O)c3ccccc3C2=O)C=C1`: the IC50 is 1240 nM at PEG-3 [1]; 1080 nM in the assay with PEG-3 [2] (setting [3]); 1400 nM in the assay with PEG-3 [2] (setting [4]); 729 nM in the assay with Rat fibroblasts (CREF) (mean of runs); 371 nM in the assay with Rat fibroblasts (CREF) (setting [3]); 1090 nM in the assay on Rat fibroblasts (CREF) (setting [4]).
Take `Cc1nc(SCC(=O)Nc2nc3ccccc3s2)c(C#N)c(C)c1C`: the concentration for half-maximal inhibition (IC50) on PEG-3 [1] is 4130 nM; in the assay with PEG-3 [2] (setting [3]), 8050 nM; with PEG-3 [2] (setting [4]), below 200 nM; with Rat fibroblasts (CREF) (mean of runs), 7900 nM; in the assay with Rat fibroblasts (CREF) (setting [3]) it was 232 nM; with Rat fibroblasts (CREF) (setting [4]), 15600 nM.
As for `Nc1ccc(-c2nc3ccc(C(=O)O)cc3s2)cc1`, the 50% inhibitory concentration (IC50) was 363 nM on PEG-3 [1]; 440 nM in the assay on PEG-3 [2] (setting [3]); 286 nM in the assay with PEG-3 [2] (setting [4]); 6030 nM in the assay on Rat fibroblasts (CREF) (mean of runs); 6250 nM in the assay with Rat fibroblasts (CREF) (setting [3]); 5810 nM in the assay on Rat fibroblasts (CREF) (setting [4]).
`Cc1cccc(CS(=O)(=O)c2ncc(Cl)c(C(=O)Nc3ccc(F)cc3)n2)c1`: the IC50 at PEG-3 [1] is 4730 nM; with PEG-3 [2] (setting [3]), 6010 nM; in the assay on PEG-3 [2] (setting [4]), 3440 nM; with Rat fibroblasts (CREF) (mean of runs) it was 2020 nM; with Rat fibroblasts (CREF) (setting [3]), above 80000 nM; in the assay with Rat fibroblasts (CREF) (setting [4]), 2020 nM.
For the compound `CC(=O)Nc1ccc(NC(=O)c2nc(S(=O)(=O)Cc3cccc(C)c3)ncc2Cl)cc1`, the half-inhibitory concentration (IC50) at PEG-3 [1] was 7650 nM; in the assay with PEG-3 [2] (setting [3]) it was 9470 nM; with PEG-3 [2] (setting [4]), 5840 nM; with Rat fibroblasts (CREF) (mean of runs), 6670 nM; with Rat fibroblasts (CREF) (setting [3]), 4500 nM; in the assay on Rat fibroblasts (CREF) (setting [4]), 8850 nM.
As to `O=C(Nc1ncc([N+](=O)[O-])s1)c1ccc2c(c1)OCO2`, the IC50 is 2210 nM on PEG-3 [1]; 2010 nM in the assay with PEG-3 [2] (setting [3]); 2410 nM with PEG-3 [2] (setting [4]); 10800 nM in the assay on Rat fibroblasts (CREF) (mean of runs); 8900 nM in the assay with Rat fibroblasts (CREF) (setting [3]); 12800 nM in the assay on Rat fibroblasts (CREF) (setting [4]).
Take `COc1ccc2c(c1)sc1nc(-c3ccccc3)cn12`: the half-inhibitory concentration (IC50) at PEG-3 [1] is 2080 nM; in the assay on PEG-3 [2] (setting [3]) it was 2460 nM; with PEG-3 [2] (setting [4]), 1700 nM; in the assay with Rat fibroblasts (CREF) (mean of runs), 403 nM; in the assay with Rat fibroblasts (CREF) (setting [3]), 323 nM; in the assay with Rat fibroblasts (CREF) (setting [4]) it was 484 nM.
With `CCOC(=O)c1c(-n2c(C)cc(C=C3C(=O)NC(=S)NC3=O)c2C)sc2c1CCCC2`, the IC50 at PEG-3 [1] is 5690 nM; with PEG-3 [2] (setting [3]), 5900 nM; with PEG-3 [2] (setting [4]), 5470 nM; in the assay with Rat fibroblasts (CREF) (mean of runs) it was 11300 nM; with Rat fibroblasts (CREF) (setting [3]) it was 20300 nM; in the assay with Rat fibroblasts (CREF) (setting [4]) it was 2350 nM.
Regarding `Cc1nn(-c2nc3ccccc3[nH]2)c(=O)c2ccccc12`, the IC50 was 491 nM at PEG-3 [1]; 510 nM in the assay on PEG-3 [2] (setting [3]); 471 nM in the assay on PEG-3 [2] (setting [4]); 331 nM with Rat fibroblasts (CREF) (mean of runs); 351 nM with Rat fibroblasts (CREF) (setting [3]); 311 nM with Rat fibroblasts (CREF) (setting [4]).
As to `CN(C)c1ccc(/C=C2\SC(=O)N(CCc3nnc(N)s3)C2=O)cc1`, the 50% inhibitory concentration (IC50) on PEG-3 [1] is 2960 nM; with PEG-3 [2] (setting [3]) it was 3340 nM; with PEG-3 [2] (setting [4]) it was 2580 nM; with Rat fibroblasts (CREF) (mean of runs) it was 3180 nM; with Rat fibroblasts (CREF) (setting [3]), 1610 nM; with Rat fibroblasts (CREF) (setting [4]) it was 4750 nM.
`c1cc2c(cc1C1=NNC(=NC3CC3)SC1)OCCO2`: the IC50 on PEG-3 [1] was 764 nM; in the assay on PEG-3 [2] (setting [3]) it was 657 nM; in the assay with PEG-3 [2] (setting [4]) it was 872 nM; in the assay with Rat fibroblasts (CREF) (mean of runs), 4720 nM; in the assay on Rat fibroblasts (CREF) (setting [3]) it was 1390 nM; in the assay on Rat fibroblasts (CREF) (setting [4]) it was 8060 nM.
Consider `Cc1c(C)c2ccc(OCC(=O)Nc3ccccn3)c(C)c2oc1=O`, for which the concentration for half-maximal inhibition (IC50) at PEG-3 [1] was 1200 nM; in the assay with PEG-3 [2] (setting [3]), 1640 nM; in the assay with PEG-3 [2] (setting [4]), 767 nM; with Rat fibroblasts (CREF) (mean of runs) it was 1650 nM; with Rat fibroblasts (CREF) (setting [3]), 1440 nM; in the assay on Rat fibroblasts (CREF) (setting [4]) it was 1860 nM.
Take `CCCN1C=CC(=C2C(=O)c3ccccc3C2=O)C=C1`: the IC50 at PEG-3 [1] was 538 nM; in the assay on PEG-3 [2] (setting [3]), 783 nM; with PEG-3 [2] (setting [4]) it was 292 nM; with Rat fibroblasts (CREF) (mean of runs), 538 nM; with Rat fibroblasts (CREF) (setting [3]) it was 469 nM; with Rat fibroblasts (CREF) (setting [4]), 606 nM.
